Experimental data: ChEMBL document CHEMBL4477214

What was measured:
[1] = target: Polymerase acidic protein (Influenza A virus (A/Puerto Rico/8/1934(H1N1)), UniProt P03433); assay: Inhibition of 8-histidine tagged influenza virus H1N1 N-terminal PA endonuclease expressed in Escherichia coli BL21 cells using single-stranded 5'-FAM fluorophore/3'-TAMRA quencher)-labeled 17-mer ssDNA-oligomer substrate measured over 45 mins by FRET analysis
[2] = test system: MDCK; assay: Cytotoxicity against MDCK cells after 48 hrs by cell-titre glo luminescence assay; assay type: cell-based, Canis lupus familiaris; conditions: dog
[3] = test system: Influenza A virus; assay: Antiviral activity against influenza A virus H1N1 ATCC VR-1737 infected in MDCK cells after 48 hrs by hemagglutination assay; assay type: functional, organism-based; conditions: H1N1 ATCC VR-1737, MDCK

Compound	IC50 [1]	other results
CS(=O)(=O)NCc1cc(=O)c(O)co1	4.8 µM	–
Cc1c(O)c(=O)ccn1-c1ccccc1	18 µM	–
CCOC(=O)c1c(C)n(-c2ccc(Oc3ccccc3)cc2)cc(O)c1=O	5.2 µM	–
CN(Cc1cc(=O)c(O)cn1-c1ccc(-c2nnn[nH]2)cc1)c1ccc(Cl)cc1	–	CC50 [2]: 280 µM
O=c1cc(CNCc2ccccc2)occ1O	2.7 µM	–
Cc1c(O)c(=O)ccn1C1CCCCC1	14 µM	–
O=C(O)/C(O)=C/C(=O)C1(Cc2ccc(Cl)cc2)CCN(Cc2ccccc2)CC1	–	EC50 [3]: 9 µM; CC50 [2]: 284 µM
CN(Cc1cc(=O)c(O)co1)c1ccc(F)cc1	1.8 µM	–
CN(Cc1cc(=O)c(O)co1)c1cccc(F)c1	3.2 µM	–
COc1cccc(CNC(=O)c2c(C)occ(O)c2=O)c1	22.1 µM	–
Cc1cc(=O)c(O)cn1C1CCOCC1	0.73 µM	–
CCOC(=O)c1c(C)n(-c2ccccc2)cc(O)c1=O	5.3 µM	–
Cc1occ(O)c(=O)c1C(=O)NCCc1ccccc1	11.3 µM	–
CN(Cc1cc(=O)c(O)co1)c1ccncc1	> 100 µM	pIC50 [1]: < 4
Cc1cc(=O)c(O)cn1-c1ccc(-c2ccccc2)cc1	1.3 µM	–
